Experimental data published in ChEMBL document CHEMBL5576051, “Synthesis of 2,2-dimethyl-chroman-based stereochemically flexible and constrained anti-breast cancer agents” (Bioorg Med Chem Lett, 2024).
Active and inactive are the calls of the source. The rule behind the calls is not given here.

Tests used:
[1] = test system: MDA-MB-231; experiment: Antiproliferative activity against estrogen receptor negative human MDA-MB-231 cells assessed as inhibition of cell viability by MTT assay; assay type: functional, cell-based
[2] = test system: MCF7; experiment: Antiproliferative activity against estrogen receptor positive human MCF7 cells assessed as inhibition of cell viability by MTT assay; assay type: functional, cell-based
[3] = test system: MCF7; experiment: Induction of cell cycle arrest in estrogen receptor positive human MCF7 cells assessed as accumulation of cells at G0/G1 phase at 11uM incubated for 24 hrs (reference value: 60.49%); assay type: functional
[4] = test system: MCF7; experiment: Induction of cell cycle arrest in estrogen receptor positive human MCF7 cells assessed as accumulation of cells at S phase at 11 uM incubated for 24 hrs (reference value: 20.84%); assay type: functional
[5] = test system: MCF7; experiment: Induction of cell cycle arrest in estrogen receptor positive human MCF7 cells assessed as accumulation of cells at G2/M phase at 11 uM incubated for 24 hrs (reference value: 19.32%); assay type: functional
[6] = test system: MDA-MB-231; experiment: Induction of cell cycle arrest in estrogen receptor negative human MDA-MB-231 cells assessed as accumulation of cells at G0/G1 phase at 9 uM incubated for 24 hrs (reference value: 61.44%); assay type: functional
[7] = test system: MDA-MB-231; experiment: Induction of cell cycle arrest in estrogen receptor […] human MDA-MB-231 cells assessed as accumulation of cells at S phase at 9 uM incubated for 24 hrs (reference value: 25.49%); assay type: functional
[8] = test system: MDA-MB-231; experiment: Induction of cell cycle arrest in estrogen receptor […] human MDA-MB-231 cells assessed as accumulation of cells at G2/M phase at 9 uM incubated for 24 hrs (reference value: 13.64%); assay type: functional
[9] = test system: MDA-MB-231; experiment: Induction of apoptosis in human MDA-MB-231 cells assessed as inhibition of PARP level; assay type: functional, cell-based
[10] = test system: MCF7; experiment: Induction of apoptosis in human MCF7 cells assessed as inhibition of PARP level; assay type: functional, cell-based
[11] = test system: MCF7; experiment: Induction of cell cycle arrest in estrogen receptor positive human MCF7 cells assessed as accumulation of cells at G0/G1 phase at 13.4 uM incubated for 24 hrs (reference value: 60.49%); assay type: functional
[12] = test system: MCF7; experiment: Induction of cell cycle arrest in estrogen receptor positive human MCF7 cells assessed as accumulation of cells at S phase at 13.4 uM incubated for 24 hrs (reference value: 20.84%); assay type: functional
[13] = test system: MCF7; experiment: Induction of cell cycle arrest in estrogen receptor positive human MCF7 cells assessed as accumulation of cells at G2/M phase at 13.4 uM incubated for 24 hrs (reference value: 19.32%); assay type: functional
[14] = test system: MDA-MB-231; experiment: Induction of cell cycle arrest in estrogen receptor negative human MDA-MB-231 cells assessed as accumulation of cells at G0/G1 phase at 9.2 uM incubated for 24 hrs (reference value: 61.44%); assay type: functional
[15] = test system: MDA-MB-231; experiment: Induction of cell cycle arrest in estrogen receptor […] human MDA-MB-231 cells assessed as accumulation of cells at S phase at 9.2 uM incubated for 24 hrs (reference value: 25.49%); assay type: functional
[16] = test system: MDA-MB-231; experiment: Induction of cell cycle arrest in estrogen receptor […] human MDA-MB-231 cells assessed as accumulation of cells at G2/M phase at 9.2 uM incubated for 24 hrs (reference value: 13.64%); assay type: functional
[17] = test system: MCF7; experiment: Induction of cell cycle arrest in estrogen receptor positive human MCF7 cells assessed as accumulation of cells at G0/G1 phase at 15 uM incubated for 24 hrs (reference value: 60.49%); assay type: functional
[18] = test system: MCF7; experiment: Induction of cell cycle arrest in estrogen receptor positive human MCF7 cells assessed as accumulation of cells at S phase at 15 uM incubated for 24 hrs (reference value: 20.84%); assay type: functional
[19] = test system: MCF7; experiment: Induction of cell cycle arrest in estrogen receptor positive human MCF7 cells assessed as accumulation of cells at G2/M phase at 15 uM incubated for 24 hrs (reference value: 19.32%); assay type: functional
[20] = test system: MCF7; experiment: Induction of cell cycle arrest in estrogen receptor positive human MCF7 cells assessed as accumulation of cells at G0/G1 phase at 12.9 uM incubated for 24 hrs (reference value: 60.49%); assay type: functional
[21] = test system: MCF7; experiment: Induction of cell cycle arrest in estrogen receptor positive human MCF7 cells assessed as accumulation of cells at S phase at 12.9 uM incubated for 24 hrs (reference value: 20.84%); assay type: functional
[22] = test system: MCF7; experiment: Induction of cell cycle arrest in estrogen receptor positive human MCF7 cells assessed as accumulation of cells at G2/M phase at 12.9 uM incubated for 24 hrs (reference value: 19.32%); assay type: functional
[23] = test system: MDA-MB-231; experiment: Induction of cell cycle arrest in estrogen receptor negative human MDA-MB-231 cells assessed as accumulation of cells at G0/G1 phase at 8.8 uM incubated for 24 hrs (reference value: 61.44%); assay type: functional
[24] = test system: MDA-MB-231; experiment: Induction of cell cycle arrest in estrogen receptor […] human MDA-MB-231 cells assessed as accumulation of cells at S phase at 8.8 uM incubated for 24 hrs (reference value: 25.49%); assay type: functional
[25] = test system: MDA-MB-231; experiment: Induction of cell cycle arrest in estrogen receptor […] human MDA-MB-231 cells assessed as accumulation of cells at G2/M phase at 8.8 uM incubated for 24 hrs (reference value: 13.64%); assay type: functional

| IC50 [1] [µM] | IC50 [2] [µM] | Compound | further results |
| --- | --- | --- | --- |
| 9 | 11 | COc1ccc2c(c1)OC(C)(C)C/C2=C(\c1ccccc1)c1ccccc1OCC(C)N(C)C (stereo not given) | Activity [3]: 58.31%; Activity [4]: 20%; Activity [5]: 22.64%; Activity [6]: 66.73%; Activity [7]: 21.11%; Activity [8]: 12.94%; Activity [9]: Active; Activity [10]: Active |
| 9.2 | 13.4 | COc1ccc2c(c1)OC(C)(C)CC2C(c1ccccc1)c1ccccc1OCCN1CCCCC1 (stereo not given) | Activity [11]: 71.33%; Activity [12]: 11.86%; Activity [13]: 17.14%; Activity [14]: 74.38%; Activity [15]: 13.75%; Activity [16]: 12.12%; Activity [9]: Active; Activity [10]: Active |
| 12 | 16 | COc1ccc2c(c1)OC(C)(C)C/C2=C(\c1ccccc1)c1ccccc1OCCN1CCCCC1 |  |
| 11.5 | 15.4 | CCN(CC)CCOc1ccc(C(c2ccccc2)C2CC(C)(C)Oc3cc(OC)ccc32)cc1 (stereo not given) |  |
| 12 | 15 | CCN(CC)CCOc1ccccc1/C(=C1/CC(C)(C)Oc2cc(OC)ccc21)c1ccccc1 |  |
| 9.5 | 12.5 | COc1ccc2c(c1)OC(C)(C)C/C2=C(\c1ccccc1)c1ccc(O)cc1 |  |
| 13 | 19 | COc1ccc2c(c1)OC(C)(C)C/C2=C(\c1ccccc1)c1ccccc1OCCN1CCCC1 |  |
| 9 | 15 | CCN(CC)CCOc1ccccc1C(c1ccccc1)C1CC(C)(C)Oc2cc(OC)ccc21 (stereo not given) | Activity [17]: 61.57%; Activity [18]: 18.9%; Activity [19]: 20.33%; Activity [6]: 75.26%; Activity [7]: 13.26%; Activity [8]: 11.71%; Activity [9]: Active; Activity [10]: Active |
| 8.5 | 13.3 | COc1ccc2c(c1)OC(C)(C)CC2C(c1ccccc1)c1ccc(OCCN2CCCCC2)cc1 (stereo not given) |  |
| 8.5 | 13.5 | COc1ccc2c(c1)OC(C)(C)CC2C(c1ccccc1)c1ccccc1OCCN(C)C (stereo not given) |  |
| 10.4 | 13.6 | COc1ccc2c(c1)OC(C)(C)CC2C(c1ccccc1)c1ccccc1O (stereo not given) |  |
| 9.5 | 12.5 | COc1ccc2c(c1)OC(C)(C)CC2C(c1ccccc1)c1ccc(O)cc1 (stereo not given) |  |
| 11 | 14 | COc1ccc2c(c1)OC(C)(C)CC2C(c1ccccc1)c1ccccc1OCC(C)N(C)C (stereo not given) |  |
| 9.6 | 13.3 | COc1ccc2c(c1)OC(C)(C)CC2C(c1ccccc1)c1ccc(OCCN2CCCC2)cc1 (stereo not given) |  |
| 12 | 16 | COc1ccc2c(c1)OC(C)(C)C/C2=C(\c1ccccc1)c1ccccc1O |  |
| 20 | 25 | COc1ccc2c(c1)OC(C)(C)CC2C(c1ccccc1)c1ccccc1OCCN1CCCC1 (stereo not given) |  |
| 19 | 24 | COc1ccc2c(c1)OC(C)(C)CC2C(c1ccc(OCCN(C)C)cc1)c1ccccc1F (stereo not given) |  |
| 17 | 22 | COc1ccc2c(c1)OC(C)(C)C/C2=C(/c1ccc(O)cc1)c1ccccc1F |  |
|  |  | COc1ccc2c(c1)OC(C)(C)CC2C(c1ccccc1)c1ccc(OCCN(C)C)cc1 (stereo not given) | Activity [1]: inactive; Activity [2]: inactive |
| 8.8 | 12.9 | COc1ccc2c(c1)OC(C)(C)C/C2=C(\c1ccccc1)c1ccccc1OCCN(C)C | Activity [20]: 63.58%; Activity [21]: 17.85%; Activity [22]: 19.26%; Activity [23]: 70.51%; Activity [24]: 16.79%; Activity [25]: 13.2%; Activity [9]: Active; Activity [10]: Active |
| 9.96 |  | CC/C(=C(\c1ccccc1)c1ccc(OCCN(C)C)cc1)c1ccccc1 [TAMOXIFEN] |  |
| 11.3 | 15.2 | COc1ccc2c(c1)OC(C)(C)CC2C(c1ccccc1)c1ccc(OCC(C)N(C)C)cc1 (stereo not given) |  |
